Laboratory results published in patent US9549918B2, “Stabilized tacrolimus composition” (priority 2008, dated 2017).

Test: Ability of stabilizing agents to dissolve in the melted PEG/Poloxamer vehicle
Assay type: physicochemical
Details: 0.5% w/w of substance mixed with PEG/Poloxamer at 80° C.

| Molecule | Physical state in vehicle | also measured |
| --- | --- | --- |
| Oc1cccc2cccnc12 [8-hydroxychinoline 0.005%, ½SO4, ½H2O, 8-hydroxychinoline] | Not dissolved | – |
| N.N.O=C(O)CC(O)(CC(=O)O)C(=O)O [Citric acid, (NH4)2] | Not dissolved | – |
| N.N.N.O=C(O)CC(O)(CC(=O)O)C(=O)O [Citric acid, (NH4)3] | Not dissolved | – |
| O=C(O)CC(O)(CC(=O)O)C(=O)O [Citric acid, H2O] | Dissolved | Physical state in vehicle (listed as citric acid): dissolved |
| O=C([O-])CC(O)(CC(=O)[O-])C(=O)[O-].[Na+].[Na+].[Na+] [Citric acid, Na3] | Not dissolved | – |
| O=C([O-])CC(O)(CC(=O)O)C(=O)O.[Na+] [Citric acid, Na] | Not dissolved | – |
| O=C(O)[C@H]1OC(O)[C@H](O)[C@@H](O)[C@@H]1O (stereo partly drawn) [D-Glucoronic acid] | Not dissolved | – |
| O=C([O-])CN(CCN(CC(=O)[O-])CC(=O)[O-])CC(=O)[O-].[Ca+2].[Na+].[Na+] [EDTA, Ca, Na2] | Not dissolved | – |
| O=C([O-])CN(CCN(CC(=O)[O-])CC(=O)O)CC(=O)[O-].[Na+].[Na+].[Na+] [EDTA, Na3] | Not dissolved | – |
| O.O.O=C([O-])CN(CCN(CC(=O)[O-])CC(=O)[O-])CC(=O)[O-].[Na+].[Na+].[Na+].[Na+] [EDTA, Na4, 2H2O] | Not dissolved | – |
| O=C(O)CN(CCN(CC(=O)O)CC(=O)O)CC(=O)O [Ethylene di-amine tetra acetic acid] | Not dissolved | – |
| O=C(O)C(=O)O [Oxalic acid, 2H2O] | Dissolved | Physical state in vehicle (listed as oxalic acid): dissolved |
| O=C([O-])C(=O)[O-].[Ca+2] [Oxalic acid, Ca, xH2O] | Not dissolved | – |
| N.N.O=C(O)C(O)C(O)C(=O)O (stereo not shown) [Tartaric acid, (NH4)2] | Not dissolved | – |
| O.O=C([O-])C(O)C(O)C(=O)[O-].O=C([O-])C(O)C(O)C(=O)[O-].[K+].[K+].[K+].[K+] (stereo not shown) [Tartaric acid, K2, ½H2O] | Not dissolved | – |
| O=C([O-])C(O)C(O)C(=O)O.[K+] (stereo not shown) [Tartaric acid, K] | Not dissolved | – |
| O=C(O)C(O)C(O)C(=O)O (stereo not shown) [Tartaric acid] | Dissolved | Physical state in vehicle (listed as tartaric acid): dissolved |
| O.O=C([O-])CN(CCN(CC(=O)[O-])CC(=O)[O-])CCN(CC(=O)[O-])CC(=O)[O-].[Ca+2].[Na+].[Na+].[Na+] [Triethyleneamine pentaacetic acid, Ca, Na3, H2O] | Not dissolved | – |
| EDTA, NH4, H2O | Not dissolved | – |
